Measured values: PubChem BioAssay (NCI)
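Tested at 5 concentrations; 48 h exposure; 96-well plates; endpoints linearly interpolated, else capped at highest concentration. GI50: concentration for 50% inhibition of growth. TGI is the concentration that stops growth completely.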

Assays:
Experiment in all cases: NCI anticancer screen, dose series, 48 h
[1] = test system: 786-0 renal
[2] = test system: IGROV1 ovarian
[3] = test system: PC-3 prostate
[4] = test system: LOX IMVI melanoma
[5] = test system: HOP-62 NSCLC
[6] = test system: RXF 393 renal
[7] = test system: BT-549 breast
[8] = test system: HCC-2998 colon
[9] = test system: SR leukemia
[10] = test system: DU-145 prostate
[11] = test system: SK-MEL-2 melanoma
[12] = test system: NCI-H460 lung
[13] = test system: SF-295 CNS
[14] = test system: HS 578T breast
[15] = test system: SF-539 CNS
[16] = test system: NCI/ADR-RES ovarian
[17] = test system: M14 melanoma
[18] = test system: SF-268 CNS
[19] = test system: EKVX NSCLC
[20] = test system: MALME-3M melanoma
[21] = test system: SK-MEL-5 melanoma
[22] = test system: A498 renal
[23] = test system: A549 NSCLC
[24] = test system: SK-MEL-28 melanoma
[25] = test system: CAKI-1 renal
[26] = test system: K-562 leukemia
[27] = test system: UACC-257 melanoma
[28] = test system: CCRF-CEM leukemia
[29] = test system: MCF7 breast
[30] = test system: COLO 205 colon
[31] = test system: MOLT-4 leukemia
[32] = test system: U251 CNS
[33] = test system: MDA-MB-231 breast
[34] = test system: SNB-19 CNS
[35] = test system: HCT-116 colon
[36] = test system: NCI-H226 lung
[37] = test system: KM12 colon
[38] = test system: NCI-H522 lung
[39] = test system: OVCAR-3 ovarian
[40] = test system: NCI-H23 lung
[41] = test system: TK-10 renal
[42] = test system: SK-OV-3 ovarian
[43] = test system: HCT-15 colon
[44] = test system: OVCAR-4 ovarian
[45] = test system: OVCAR-5 ovarian
[46] = test system: MDA-MB-435
[47] = test system: ACHN renal
[48] = test system: UO-31 renal
[49] = test system: OVCAR-8 ovarian
[50] = test system: HT29 colon
[51] = test system: SNB-75 CNS
[52] = test system: UACC-62 melanoma
[53] = test system: HL-60(TB) leukemia
[54] = test system: HOP-92 NSCLC
[55] = test system: SW-620 colon
[56] = test system: RPMI-8226 leukemia

O=C(CI)Nc1ccc(Br)cc1
GI50 [1]: 2.23 µM
TGI [1]: 4.62 µM
GI50 [2]: 2.35 µM
TGI [2]: 4.88 µM
GI50 [3]: 2.43 µM
TGI [3]: 6.22 µM
GI50 [4]: 0.326 µM
TGI [4]: 1.46 µM
GI50 [5]: 1.89 µM
TGI [5]: 3.82 µM
GI50 [6]: 1.7 µM
TGI [6]: 3.21 µM
GI50 [7]: 1.64 µM
TGI [7]: 3.14 µM
GI50 [8]: 13.4 µM
TGI [8]: 27.3 µM
GI50 [9]: 0.365 µM
TGI [9]: > 100 µM
GI50 [10]: 1.77 µM
TGI [10]: 3.18 µM
GI50 [11]: 2.9 µM
TGI [11]: 8.03 µM
GI50 [12]: 12.4 µM
TGI [12]: 45.8 µM
GI50 [13]: 11.2 µM
TGI [13]: 30.7 µM
GI50 [14]: 5.05 µM
TGI [14]: > 100 µM
GI50 [15]: 1.81 µM
TGI [15]: 3.67 µM
GI50 [16]: 3.03 µM
TGI [16]: 9.76 µM
GI50 [17]: 1.92 µM
TGI [17]: 3.85 µM
GI50 [18]: 1.8 µM
TGI [18]: 3.65 µM
GI50 [19]: 2.25 µM
TGI [19]: 5.85 µM
GI50 [20]: 2.1 µM
TGI [20]: 4.29 µM
GI50 [21]: 3.95 µM
TGI [21]: 15.4 µM
GI50 [22]: 16.3 µM
TGI [22]: 33.1 µM
GI50 [23]: 5.89 µM
TGI [23]: 29.3 µM
GI50 [24]: 3.82 µM
TGI [24]: 11.3 µM
GI50 [25]: 1.69 µM
TGI [25]: 3.51 µM
GI50 [26]: 2.53 µM
TGI [26]: > 100 µM
GI50 [27]: 2.05 µM
TGI [27]: 4.66 µM
GI50 [28]: 1.75 µM
TGI [28]: > 100 µM
GI50 [29]: 1.91 µM
TGI [29]: 3.95 µM
GI50 [30]: 1.85 µM
TGI [30]: 3.7 µM
GI50 [31]: 3.43 µM
TGI [31]: > 100 µM
GI50 [32]: 1.83 µM
TGI [32]: 3.87 µM
GI50 [33]: 2.6 µM
TGI [33]: 5.51 µM
GI50 [34]: 15.1 µM
TGI [34]: 33.5 µM
GI50 [35]: 1.88 µM
TGI [35]: 3.45 µM
GI50 [36]: 3.78 µM
TGI [36]: 19.2 µM
GI50 [37]: 2.9 µM
TGI [37]: 10.7 µM
GI50 [38]: 1.53 µM
TGI [38]: 3.47 µM
GI50 [39]: 1.72 µM
TGI [39]: 3.25 µM
GI50 [40]: 1.87 µM
TGI [40]: 4.61 µM
GI50 [41]: 1.92 µM
TGI [41]: 3.63 µM
GI50 [42]: 1.99 µM
TGI [42]: 3.99 µM
GI50 [43]: 2.09 µM
TGI [43]: 5.13 µM
GI50 [44]: 2.92 µM
TGI [44]: 7.25 µM
GI50 [45]: 2.14 µM
TGI [45]: 4.81 µM
GI50 [46]: 2.04 µM
TGI [46]: 4.7 µM
GI50 [47]: 2 µM
TGI [47]: 4.06 µM
GI50 [48]: 1.63 µM
TGI [48]: 3.17 µM
GI50 [49]: 2.46 µM
TGI [49]: 5.95 µM
GI50 [50]: 2.43 µM
TGI [50]: 5.28 µM
GI50 [51]: 5.42 µM
TGI [51]: 24.7 µM
GI50 [52]: 3.96 µM
TGI [52]: 14.8 µM

Cn1c(=O)c2[nH]c(SC/C(=N/O)c3ccc(Br)cc3)nc2n(C)c1=O
GI50 [53]: 68.6 µM
TGI [53]: > 100 µM
GI50 [2]: 2.27 µM
TGI [2]: 5.55 µM
GI50 [3]: > 100 µM
TGI [3]: > 100 µM
GI50 [4]: 3.12 µM
TGI [4]: > 100 µM
GI50 [5]: 2.3 µM
TGI [5]: 5.09 µM
GI50 [6]: 2.05 µM
TGI [6]: 3.76 µM
GI50 [7]: 2.55 µM
TGI [7]: 7.36 µM
GI50 [9]: 2.83 µM
TGI [9]: > 100 µM
GI50 [11]: 2.08 µM
TGI [11]: 4.26 µM
GI50 [54]: 2.02 µM
TGI [54]: 4.56 µM
GI50 [13]: 1.82 µM
TGI [13]: 4.1 µM
GI50 [14]: 3.05 µM
TGI [14]: 7.9 µM
GI50 [17]: 45.5 µM
TGI [17]: > 100 µM
GI50 [19]: 2.76 µM
TGI [19]: > 100 µM
GI50 [20]: 2.4 µM
TGI [20]: 5.22 µM
GI50 [26]: 25.9 µM
TGI [26]: > 100 µM
GI50 [28]: 14.3 µM
TGI [28]: 57.1 µM
GI50 [30]: > 100 µM
TGI [30]: > 100 µM
GI50 [31]: 20.4 µM
TGI [31]: 64 µM
GI50 [55]: > 100 µM
TGI [55]: > 100 µM
GI50 [33]: 2.14 µM
TGI [33]: 4.38 µM
GI50 [34]: 2.94 µM
TGI [34]: 8.35 µM
GI50 [35]: 3.19 µM
TGI [35]: > 100 µM
GI50 [56]: 34.7 µM
TGI [56]: > 100 µM
GI50 [40]: 2.08 µM
TGI [40]: 4.75 µM
GI50 [41]: 1.92 µM
TGI [41]: 3.41 µM
GI50 [51]: 2.04 µM
TGI [51]: 5.07 µM

COc1ccc2cc1Oc1ccc(cc1)C[C@@H]1c3cc(c(OC)cc3CCN1C)Oc1c(OC)c(OC)cc3c1[C@H](C2)N(C)CC3
TGI [53]: 30.8 µM
TGI [1]: 89.6 µM
TGI [2]: 72.9 µM
TGI [6]: 13.7 µM
TGI [8]: 25.8 µM
TGI [9]: 9.91 µM
TGI [12]: 29.7 µM
TGI [13]: 34.2 µM
TGI [14]: 42.3 µM
TGI [15]: 23.6 µM
TGI [17]: 37.1 µM
TGI [18]: 60.8 µM
TGI [21]: 25.1 µM
TGI [22]: 42.5 µM
TGI [26]: 23 µM
TGI [27]: 28.9 µM
TGI [28]: 51.8 µM
TGI [29]: 31 µM
TGI [32]: > 100 µM
TGI [33]: 29.9 µM
TGI [34]: 50 µM
TGI [35]: > 100 µM
TGI [38]: 33.4 µM
TGI [39]: > 100 µM
TGI [40]: 34.1 µM
TGI [41]: 39.5 µM
TGI [42]: > 100 µM
TGI [43]: 25.1 µM
TGI [44]: 55.6 µM
TGI [47]: 28.5 µM
TGI [49]: 35.6 µM
TGI [51]: 27.3 µM
